Key:
MCF7 = assay: Antiproliferative activity against human MCF7 cells assessed as reduction in cell proliferation measured after 5 days by Cell-titer-Glo assay; format: functional, cell-based; details: MCF7, 120 h
Estrogen receptor = molecular target: T1, Estrogen receptor (Homo sapiens, UniProt P03372); assay: Induction of ERalpha degradation in human MCF7 cells in phenol red free RPMI medium containing 5% charcoal-stripped FBS incubated for 4 hrs by IRDye 800CW/DRAQ5 dye based in-cell Western assay
T1 sequence (P03372 whole entry): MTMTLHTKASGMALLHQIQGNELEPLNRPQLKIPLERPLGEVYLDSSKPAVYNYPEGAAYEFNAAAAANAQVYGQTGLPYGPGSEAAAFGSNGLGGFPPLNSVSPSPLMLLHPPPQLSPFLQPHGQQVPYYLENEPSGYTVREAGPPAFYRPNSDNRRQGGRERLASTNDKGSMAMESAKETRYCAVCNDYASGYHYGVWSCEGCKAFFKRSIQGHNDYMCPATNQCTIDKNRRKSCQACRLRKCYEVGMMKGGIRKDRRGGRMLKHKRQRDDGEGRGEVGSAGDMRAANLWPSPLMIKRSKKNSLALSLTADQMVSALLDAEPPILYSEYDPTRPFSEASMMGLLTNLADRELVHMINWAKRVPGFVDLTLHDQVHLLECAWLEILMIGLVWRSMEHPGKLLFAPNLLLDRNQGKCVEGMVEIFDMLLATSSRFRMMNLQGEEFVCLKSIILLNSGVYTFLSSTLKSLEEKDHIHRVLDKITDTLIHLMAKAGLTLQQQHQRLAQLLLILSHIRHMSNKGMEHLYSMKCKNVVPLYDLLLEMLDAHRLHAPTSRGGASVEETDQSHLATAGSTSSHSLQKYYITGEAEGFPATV

[1] = molecular target: T2, Estrogen receptor (Homo sapiens) (UniProt P03372); assay: Induction of ERalpha degradation in human MCF7 cells in phenol red free RPMI medium containing 5% charcoal-stripped FBS incubated for 4 hrs by IRDye 800CW/DRAQ5 dye based in-cell Western assay relative to fulvestrant
T2 sequence (whole entry): T1 sequence (P03372 whole entry)

Row | SMILES | IC50 (MCF7) [µM] | EC50 (Estrogen receptor) [µM] | Efficacy [1] [%]
1 | CC/C(=C(/c1ccc(/C=C/C(=O)O)cc1)c1ccc2nncn2c1)c1ccccc1 | > 0.5 | > 0.5 | –
2 | CC/C(=C(/c1ccc(/C=C/C(=O)O)cc1)c1ccc(-c2cnco2)cc1)c1ccccc1 | 0.051 | 0.017 | 92
3 | CC/C(=C(/c1ccc(/C=C/C(=O)O)cc1)c1ccc(-c2cn[nH]c2)cc1)c1ccccc1 | 0.04 | 0.012 | 91
4 | O=C(O)/C=C/c1ccc(/C(=C(\c2ncc(C(F)(F)F)cc2Cl)C2CCC2)c2ccc(N3CCOCC3)cc2)cc1 | 0.02 | 0.0041 | 92
5 | O=C(O)/C=C/c1ccc(/C(=C(\c2ccccc2)C2CCC2)c2ccc(-c3cn[nH]c3)cc2)cc1 | 0.011 | 0.0021 | 90
6 | CC/C(=C(/c1ccc(/C=C/C(=O)O)cc1)c1ccc2c(cnn2C)c1)c1ccc(F)cc1Cl | 0.081 | 0.027 | 86
7 | O=C(O)/C=C/c1ccc(/C(=C(\c2ccccc2)C2CCC2)c2ccc3scnc3c2)cc1 | 0.016 | 0.0059 | 88
8 | N#Cc1ccc(/C(=C(\c2ccc(/C=C/C(=O)O)cc2)c2ccc(-c3cncs3)cc2)C2CCC2)c(Cl)c1 | 0.0029 | 0.0018 | 94
9 | N#Cc1ccc(/C(=C(\c2ccc(/C=C/C(=O)O)cc2)c2ccc(N3CCOCC3)cc2)C2CCC2)c(Cl)c1 | 0.0075 | 0.0042 | 92
10 | O=C(O)/C=C/c1ccc(/C(=C(\c2ncc(C(F)(F)F)cc2Cl)C2CCC2)c2ccc(-c3cncs3)cc2)cc1 | 0.0073 | 0.0014 | 93
11 | CC/C(=C(/c1ccc(/C=C/C(=O)O)cc1)c1ccc2nnnn2c1)c1ccccc1 | > 0.5 | > 0.5 | –

More lines, now with the values ahead:

Row | IC50 (MCF7) [µM] | EC50 (Estrogen receptor) [µM] | Efficacy [1] [%] | SMILES
12 | 0.0046 | – | – | CC/C(=C(\c1ccc(O)cc1)c1ccc(/C=C/C(=O)O)cc1)c1ccccc1
13 | 0.12 | 0.037 | 90 | CC/C(=C(/c1ccc(/C=C/C(=O)O)cc1)c1ccc(-c2cscn2)cc1)c1ccccc1
14 | 0.0059 | 0.0043 | 93 | N#Cc1cc(Cl)ccc1/C(=C(\c1ccc(/C=C/C(=O)O)cc1)c1ccc2nccn2c1)C1CCC1
15 | 0.094 | 0.05 | 91 | CC/C(=C(/c1ccc(/C=C/C(=O)O)cc1)c1ccc(N2CCOCC2)cc1)c1ccccc1
16 | 0.12 | 0.028 | 89 | CC/C(=C(/c1ccc(/C=C/C(=O)O)cc1)c1ccc(-c2cnsc2)cc1)c1ccccc1
17 | 0.012 | 0.005 | 92 | N#Cc1cc(Cl)ccc1/C(=C(\c1ccc(/C=C/C(=O)O)cc1)c1ccc(N2CCOCC2)cc1)C1CCC1
18 | 0.09 | 0.022 | 89 | CC/C(=C(/c1ccc(/C=C/C(=O)O)cc1)c1ccc2scnc2c1)c1ccccc1
19 | 0.015 | 0.019 | 93 | N#Cc1ccc(/C(=C(\c2ccc(/C=C/C(=O)O)cc2)c2ccc3nccn3c2)C2CCC2)c(Cl)c1
20 | > 0.5 | > 0.5 | – | CC/C(=C(/c1ccc(/C=C/C(=O)O)cc1)c1ccn2ccnc2c1)c1ccccc1
21 | 0.016 | 0.0028 | 93 | O=C(O)/C=C/c1ccc(/C(=C(\c2ncc(C(F)(F)F)cc2Cl)C2CCC2)c2ccc(-c3cn[nH]c3)cc2)cc1
22 | 0.0051 | 0.0015 | 94 | O=C(O)/C=C/c1ccc(/C(=C(\c2ccc(C(F)(F)F)cc2Cl)C2CCC2)c2ccc3nccn3c2)cc1
23 | 0.08 | 0.015 | 92 | CC/C(=C(/c1ccc(/C=C/C(=O)O)cc1)c1ccc(-c2cnn(C)c2)cc1)c1ccccc1
24 | 0.031 | 0.0074 | 90 | CC/C(=C(/c1ccc(/C=C/C(=O)O)cc1)c1ccc(-c2cncs2)cc1)c1ccccc1
25 | 0.016 | 0.0048 | 93 | O=C(O)/C=C/c1ccc(/C(=C(\c2ccc(C(F)(F)F)cc2Cl)C2CCC2)c2ccc(-c3cn[nH]c3)cc2)cc1
